According to ChEMBL document CHEMBL1149544, “R-(-)-N-alkyl-11-hydroxy-10-hydroxymethyl- and 10-methyl-aporphines as 5-HT1A receptor ligands” (Bioorg Med Chem Lett, 2007):

Columns and labels:
Rattus norvegicus = species: Rattus norvegicus; assay: Selectivity for rat 5HT1A over rat 5HT2A
D(1A) dopamine receptor = D(1A) dopamine receptor (Rattus norvegicus, UniProt P18901); assay: Displacement of [3H]SCH-23390 from rat dopamine D1 receptor
[1] = molecular target: 5-hydroxytryptamine receptor 2A (Rattus norvegicus, UniProt P14842); assay: Displacement of [3H]ketanserin from rat 5HT2A receptor
Chain of 5-hydroxytryptamine receptor 2A (P14842 whole entry): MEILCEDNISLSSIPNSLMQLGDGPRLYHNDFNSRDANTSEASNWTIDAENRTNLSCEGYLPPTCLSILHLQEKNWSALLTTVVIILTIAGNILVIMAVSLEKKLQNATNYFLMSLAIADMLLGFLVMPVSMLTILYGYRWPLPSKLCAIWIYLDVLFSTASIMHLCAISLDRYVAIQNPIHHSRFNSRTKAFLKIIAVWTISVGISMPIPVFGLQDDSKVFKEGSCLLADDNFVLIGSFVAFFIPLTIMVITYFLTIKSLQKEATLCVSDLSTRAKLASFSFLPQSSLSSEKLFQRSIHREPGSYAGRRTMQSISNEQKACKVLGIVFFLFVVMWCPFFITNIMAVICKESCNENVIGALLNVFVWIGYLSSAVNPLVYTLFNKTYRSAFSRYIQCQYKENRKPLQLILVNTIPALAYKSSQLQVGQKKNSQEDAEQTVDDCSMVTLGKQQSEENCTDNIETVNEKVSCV

[2] = molecular target: T1, 5-hydroxytryptamine receptor 1A (Rattus norvegicus, UniProt P19327); assay: Displacement of [3H]8-OH-DPAT from rat 5HT1A receptor
T1 sequence (P19327 whole entry): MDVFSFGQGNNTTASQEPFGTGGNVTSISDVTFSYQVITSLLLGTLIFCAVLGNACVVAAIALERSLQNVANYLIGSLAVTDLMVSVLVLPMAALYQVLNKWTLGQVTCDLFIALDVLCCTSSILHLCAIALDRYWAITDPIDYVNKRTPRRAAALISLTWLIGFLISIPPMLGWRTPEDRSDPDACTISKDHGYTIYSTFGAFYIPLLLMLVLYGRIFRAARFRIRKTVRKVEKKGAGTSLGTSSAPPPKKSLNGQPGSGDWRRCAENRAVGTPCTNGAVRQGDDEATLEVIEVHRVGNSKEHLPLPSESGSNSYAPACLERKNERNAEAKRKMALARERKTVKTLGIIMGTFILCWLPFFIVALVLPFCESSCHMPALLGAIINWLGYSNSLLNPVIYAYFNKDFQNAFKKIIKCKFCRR

D(2) dopamine receptor = D(2) dopamine receptor (Rattus norvegicus, UniProt P61169); assay: Displacement of [3H]nemonapride from rat dopamine D2 receptor
Chain of D(2) dopamine receptor (P61169 whole entry): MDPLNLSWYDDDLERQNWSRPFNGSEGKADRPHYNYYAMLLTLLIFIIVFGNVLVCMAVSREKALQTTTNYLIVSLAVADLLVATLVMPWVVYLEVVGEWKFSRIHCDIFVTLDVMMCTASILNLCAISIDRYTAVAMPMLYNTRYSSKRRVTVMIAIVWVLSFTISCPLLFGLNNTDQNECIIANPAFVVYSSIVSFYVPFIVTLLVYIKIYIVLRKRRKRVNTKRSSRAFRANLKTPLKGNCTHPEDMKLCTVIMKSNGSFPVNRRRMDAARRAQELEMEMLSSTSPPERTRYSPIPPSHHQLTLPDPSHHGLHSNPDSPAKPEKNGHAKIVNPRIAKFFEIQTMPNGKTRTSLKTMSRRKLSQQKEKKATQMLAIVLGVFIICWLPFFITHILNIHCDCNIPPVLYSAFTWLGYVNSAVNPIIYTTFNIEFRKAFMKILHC

Chain of D(1A) dopamine receptor (P18901 whole entry): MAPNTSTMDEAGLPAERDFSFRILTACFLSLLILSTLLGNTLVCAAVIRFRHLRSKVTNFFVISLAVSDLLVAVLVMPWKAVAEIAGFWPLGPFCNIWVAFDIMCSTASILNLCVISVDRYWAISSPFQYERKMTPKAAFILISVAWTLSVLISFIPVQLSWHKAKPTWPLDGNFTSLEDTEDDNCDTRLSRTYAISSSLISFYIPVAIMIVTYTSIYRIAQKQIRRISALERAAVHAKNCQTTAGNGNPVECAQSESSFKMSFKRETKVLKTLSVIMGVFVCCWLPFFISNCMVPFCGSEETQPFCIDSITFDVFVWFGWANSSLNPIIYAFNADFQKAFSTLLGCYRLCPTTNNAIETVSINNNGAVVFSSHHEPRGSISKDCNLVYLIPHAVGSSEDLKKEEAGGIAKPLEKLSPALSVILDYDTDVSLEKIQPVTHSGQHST

Row | Compound | Ratio Ki (Rattus norvegicus) | Ki (D(1A) dopamine receptor) [nM] | Ki [1] [nM] | Ki [2] [nM] | Ki (D(2) dopamine receptor) [nM]
1 | COc1cc2c3c(c1)-c1c(ccc(C)c1O)C[C@H]3N(C)CC2 | 108 | 1780 | 271 | 21.5 | 3760
2 | CN1CCc2cccc3c2[C@H]1Cc1ccc(CO)c(O)c1-3 | 57 | 1390 | 137 | 2.4 | 7000
3 | CCCN1CCc2cc(OC)cc3c2[C@H]1Cc1ccc(C)c(O)c1-3 | – | 2790 | – | 480 | 1350
4 | CCCN1CCc2cccc3c2[C@H]1Cc1ccc(CO)c(O)c1-3 | – | 1980 | – | 375 | 6060
5 | Cc1ccc2c(c1O)-c1cccc3c1[C@@H](C2)N(C)CC3 | – | 9650 | – | 216 | 11500
